According to patent US11840686B2, “Modulation of prekallikrein (PKK) expression” (Ionis Pharmaceuticals, Inc., priority 2013, dated 2023):
Strand notation (5' to 3'): a small letter for the sugar, then the base; units joined by * are phosphorothioate-linked, units joined directly phosphodiester-linked; [ ] holds rarer units or linkages, { } end groups; capitals alone tell only the bases. e = 2'-O-(2-methoxyethyl) (MOE); k = constrained ethyl (cEt); [5mC] = 5-methylcytosine; d = 2'-deoxy (DNA)

The substances below were run on human PKK mRNA (assay: Antisense inhibition of human PKK mRNA in HepaRG cells, 1,000 nM, MOE/deoxy/cEt oligonucleotides (Example 3)). Settings: HepaRG cells, 1,000 nM antisense oligonucleotide, Table 29.
Assay type: cell-based
Procedure, shortened: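 Readout is percent PKK mRNA reduction against untreated controls, by real-time PCR (RTS3454) adjusted for total RNA via RIBOGREEN. Oligonucleotides, phosphorothioate gapmers of 16 nucleosides with cEt, MOE and deoxy sugars, were delivered at 1,000 nM by electroporation to 20,000 HepaRG cells/well for roughly 24 h.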

Substance | % inhibition
548579 (eG*eG*kG*d[5mC]*dT*dA*dT*dA*dT*dT*dG*d[5mC]*d[5mC]*kA*kG*e[5mC]; antisense) [compound 548579] | 46%
548543 (antisense eG*eA*kT*d[5mC]*d[5mC]*dA*d[5mC]*d[5mC]*d[5mC]*dA*dT*dG*dA*k[5mC]*k[5mC]*eT) [compound 548543] | 32%
548596 (eA*eT*kG*dG*d[5mC]*dG*dG*dT*dG*dA*dA*dG*d[5mC]*kA*kG*e[5mC]; antisense) [compound 548596] | 20%
548603 (eG*eA*kG*dA*dT*dT*dG*dG*dT*dG*dG*dT*dG*kG*kG*eT; antisense) [compound 548603] | 35%
548555 (antisense eA*e[5mC]*kA*d[5mC]*dG*d[5mC]*d[5mC]*dA*dG*dG*dT*dG*dA*kA*kA*eA) [compound 548555] | 2%

Same assay, conditions: HepaRG cells, electroporation with 1,000 nM antisense oligonucleotide, approx. 24 hours, PKK mRNA by RT-PCR (RTS3454), relative to untreated control cells; Table 25 experiment

Substance | % inhibition
548184 (eA*e[5mC]*kA*dG*dT*d[5mC]*dA*dT*dG*dG*dA*dG*dA*kT*k[5mC]*eT; antisense) [compound 548184] | 73%
548167 (eT*eG*k[5mC]*dG*dA*d[5mC]*d[5mC]*dT*d[5mC]*dG*d[5mC]*dA*dT*kT*kG*eT; antisense) [compound 548167] | 36%
548213 (eG*eA*k[5mC]*dA*dG*d[5mC]*d[5mC]*d[5mC]*dA*d[5mC]*d[5mC]*dA*dA*k[5mC]*kA*eA; antisense) [compound 548213] | 70%
548173 (e[5mC]*eT*k[5mC]*dA*dG*dT*dT*dG*d[5mC]*dG*dA*d[5mC]*d[5mC]*kT*k[5mC]*eG; antisense) [compound 548173] | 51%

Same assay, conditions: HepaRG cells, electroporation with 1,000 nM antisense oligonucleotide, approx. 24 hours, PKK mRNA by RT-PCR (RTS3454), relative to untreated control cells; Table 26 experiment

Substance | % inhibition
548251 (antisense eG*e[5mC]*k[5mC]*dT*dT*dT*dG*dT*dG*dA*dT*dG*d[5mC]*kG*kA*eT) [compound 548251] | 13%

Same assay, conditions: HepaRG cells, electroporation with 1,000 nM antisense oligonucleotide, approximately 24 hours, primer probe set RTS3454, relative to untreated control cells; experiment of Table 23

Substance | % inhibition
547981 (antisense eT*e[5mC]*kT*dT*dT*dG*dT*dG*d[5mC]*dA*dA*dG*dT*k[5mC]*kT*e[5mC]) [compound 547981] | 76%
547983 (antisense eG*eA*kA*dT*d[5mC]*dA*dT*d[5mC]*dT*dT*dT*dG*dT*kG*k[5mC]*eA) [compound 547983] | 56%

Same assay, conditions: HepaRG cells, electroporation with 1,000 nM antisense oligonucleotide, approximately 24 hours, primer probe set RTS3454, relative to untreated control cells; experiment of Table 24

Substance | % inhibition
548011 (e[5mC]*e[5mC]*kA*dG*dT*dG*dT*dT*dA*d[5mC]*dA*d[5mC]*dA*kA*kT*e[5mC]; antisense) [compound 548011] | 14%
548049 (eG*e[5mC]*kG*dA*dT*dA*dT*d[5mC]*dA*dT*dG*dA*dT*kT*k[5mC]*e[5mC]; antisense) [compound 548049] | 62%
548020 (eT*e[5mC]*k[5mC]*d[5mC]*d[5mC]*dA*dA*dG*dA*dA*dG*dA*dG*kT*kT*eT; antisense) [compound 548020] | 76%
548006 (e[5mC]*eA*kA*dA*dG*dA*dG*dT*dA*dA*d[5mC]*d[5mC]*dA*kG*kA*eG; antisense) [compound 548006] | 54%

Same assay, conditions: PKK mRNA, HepaRG cells, 1,000 nM antisense oligonucleotide; Table 31

Substance | % inhibition
548619 (antisense eG*eG*kT*dT*dG*dG*dT*dG*dG*d[5mC]*dG*dG*dG*kA*kT*e[5mC]) [compound 548619] | 19%
548688 (DNA eT*eA*kG*dA*dG*dG*dG*dA*dT*d[5mC]*d[5mC]*d[5mC]*dA*kG*kG*eA) [compound 548688] | 0%
548663 (antisense eG*e[5mC]*k[5mC]*d[5mC]*dT*dA*dG*dA*dA*dG*dG*dG*d[5mC]*k[5mC]*k[5mC]*eA) [compound 548663] | 20%
548661 (antisense eA*e[5mC]*kG*dA*d[5mC]*d[5mC]*d[5mC]*dA*d[5mC]*dT*d[5mC]*d[5mC]*dA*kT*kG*eT) [compound 548661] | 18%
548662 (antisense eT*eG*k[5mC]*dT*dT*dA*dA*dA*dA*dG*dT*d[5mC]*dT*k[5mC]*k[5mC]*e[5mC]) [compound 548662] | 5%

Same assay, conditions: Table 19; HepaRG cells, electroporation with 1,000 nM antisense oligonucleotide, approximately 24 hours; PKK mRNA by RT-PCR (RTS3454), relative to untreated control cells

Substance | % inhibition
548105 (antisense e[5mC]*eA*kT*dG*dT*dA*d[5mC]*dT*d[5mC]*dA*dG*d[5mC]*dG*kA*k[5mC]*eT) [compound 548105] | 49%
548136 (eG*eG*k[5mC]*dT*d[5mC]*dA*dG*dA*dA*dT*dT*dT*dG*kA*k[5mC]*eT; antisense) [compound 548136] | 39%
548093 (antisense eT*eT*kT*dG*d[5mC]*dA*dA*dA*d[5mC]*dT*dA*dA*dG*kG*kG*eA) [compound 548093] | 0%
548139 (eA*eG*kA*dT*dG*dA*dG*dG*dA*d[5mC]*d[5mC]*d[5mC]*d[5mC]*k[5mC]*k[5mC]*eA; antisense) [compound 548139] | 56%
548138 (e[5mC]*e[5mC]*k[5mC]*d[5mC]*dA*dG*dG*d[5mC]*dT*d[5mC]*dA*dG*dA*kA*kT*eT; antisense) [compound 548138] | 52%

Same assay, conditions: Table 20; HepaRG cells, electroporation with 1,000 nM antisense oligonucleotide, approximately 24 hours; PKK mRNA by RT-PCR (RTS3454), relative to untreated control cells

Substance | % inhibition
547904 (eA*e[5mC]*kT*d[5mC]*dA*dG*d[5mC]*dA*d[5mC]*d[5mC]*dT*dT*dT*kA*kT*eA; antisense) [compound 547904] | 56%
547854 (antisense eA*eT*k[5mC]*dA*dA*d[5mC]*dT*d[5mC]*d[5mC]*dT*dT*dT*dA*kT*kA*eA) [compound 547854] | 10%
547853 (antisense eT*eA*kT*dA*dA*dA*dT*dG*dT*d[5mC]*dT*d[5mC]*dG*kA*kT*eG) [compound 547853] | 0%

Same assay, conditions: Table 21 experiment; HepaRG cells, electroporation with 1,000 nM antisense oligonucleotide, approx. 24 hours; PKK mRNA by RT-PCR (RTS3454), relative to untreated control cells

Substance | % inhibition
547763 (antisense eG*eG*kT*dG*dA*dG*dT*d[5mC]*dT*d[5mC]*dT*dT*dG*kT*k[5mC]*eA) [compound 547763] | 66%

Same assay, conditions: Table 22 experiment; HepaRG cells, electroporation with 1,000 nM antisense oligonucleotide, approx. 24 hours; PKK mRNA by RT-PCR (RTS3454), relative to untreated control cells

Substance | % inhibition
547904 (eA*e[5mC]*kT*d[5mC]*dA*dG*d[5mC]*dA*d[5mC]*d[5mC]*dT*dT*dT*kA*kT*eA; antisense) [compound 547904] | 41%
547854 (antisense eA*eT*k[5mC]*dA*dA*d[5mC]*dT*d[5mC]*d[5mC]*dT*dT*dT*dA*kT*kA*eA) [compound 547854] | 9%
547853 (antisense eT*eA*kT*dA*dA*dA*dT*dG*dT*d[5mC]*dT*d[5mC]*dG*kA*kT*eG) [compound 547853] | 30%

Same assay, conditions: Table 27; HepaRG cells, 1,000 nM antisense oligonucleotide; human PKK mRNA

Substance | % inhibition
548330 (antisense eG*eA*k[5mC]*dT*dA*dG*d[5mC]*dT*dT*d[5mC]*dT*dA*d[5mC]*kT*kA*e[5mC]) [compound 548330] | 34%
548315 (eG*eT*kT*dG*dT*d[5mC]*dA*dA*d[5mC]*dT*dG*dG*dG*kA*k[5mC]*e[5mC]; antisense) [compound 548315] | 14%
548305 (eG*eT*kT*d[5mC]*dT*dT*dG*d[5mC]*dT*dT*dA*dT*d[5mC]*k[5mC]*kT*e[5mC]; antisense) [compound 548305] | 55%

Same assay, conditions: Table 28; HepaRG cells, 1,000 nM antisense oligonucleotide; human PKK mRNA

Substance | % inhibition
548481 (eG*eT*kT*d[5mC]*d[5mC]*d[5mC]*dT*dG*dA*dG*dG*dA*dA*k[5mC]*kG*eG; antisense) [compound 548481] | 2%
548507 (antisense eA*eA*kA*d[5mC]*dT*d[5mC]*d[5mC]*dT*d[5mC]*dT*d[5mC]*dA*dA*kG*kG*e[5mC]) [compound 548507] | 53%
548534 (antisense e[5mC]*eA*kG*dA*dT*d[5mC]*d[5mC]*d[5mC]*dA*dA*dT*dT*d[5mC]*kT*kT*e[5mC]) [compound 548534] | 22%
548520 (antisense e[5mC]*e[5mC]*kG*d[5mC]*dT*dT*d[5mC]*d[5mC]*d[5mC]*dT*dG*dA*d[5mC]*kT*kG*eT) [compound 548520] | 43%
548530 (antisense eA*eT*kA*dA*dT*dA*dG*dA*dG*dG*d[5mC]*dA*dG*k[5mC]*k[5mC]*eA) [compound 548530] | 50%
548488 (antisense e[5mC]*e[5mC]*kT*d[5mC]*d[5mC]*dT*dT*dT*dT*dG*dG*d[5mC]*dT*kT*kG*eA) [compound 548488] | 63%
548480 (eG*e[5mC]*k[5mC]*dA*d[5mC]*dG*d[5mC]*d[5mC]*d[5mC]*dT*dT*dA*dG*k[5mC]*kA*eG; antisense) [compound 548480] | 20%

Same assay, conditions: Table 30; human PKK mRNA, HepaRG cells, 1,000 nM antisense oligonucleotide

Substance | % inhibition
548421 (antisense e[5mC]*eA*k[5mC]*dT*dG*dT*d[5mC]*d[5mC]*dT*dA*dT*dA*dT*k[5mC]*kA*e[5mC]) [compound 548421] | 56%
548417 (antisense eA*e[5mC]*kT*dG*dT*d[5mC]*d[5mC]*dT*dA*dT*dA*dA*d[5mC]*kT*k[5mC]*eT) [compound 548417] | 24%
548408 (antisense eT*eA*kT*d[5mC]*dA*d[5mC]*dT*dG*dT*dA*d[5mC]*dT*dA*kG*kT*eT) [compound 548408] | 47%
548427 (antisense e[5mC]*eT*kA*dT*dA*dA*d[5mC]*dA*dG*dT*dA*dT*d[5mC]*kA*k[5mC]*eT) [compound 548427] | 24%
548431 (antisense eT*eA*k[5mC]*d[5mC]*dT*dA*dT*dA*dA*d[5mC]*dT*d[5mC]*dT*kA*kA*e[5mC]) [compound 548431] | 9%
548402 (e[5mC]*e[5mC]*k[5mC]*d[5mC]*dA*dT*d[5mC]*dT*d[5mC]*dG*dA*dA*dG*k[5mC]*k[5mC]*e[5mC]; antisense) [compound 548402] | 45%
